Test results published in PubChem BioAssay AID1996.
Converted amounts (≈) assume the structure as drawn.

Details: buffer; pH 7.4; 200.0 µM

SMILES	solubility kinetic [µg/mL]
CCCCSCCCNC(=S)Nc1ccccc1C	35.3 (≈ 119 µM)
O=C(NCc1ccco1)C(=O)c1cn(CC(=O)N2CCCC2)c2ccccc12	> 56.9
CCCCc1ccccc1NC(=S)NC1CCCC1	30.5 (≈ 110 µM)
COc1ccc(OC(C)C(=O)NC2CCCCCC2)cc1 (centres undefined)	40 (≈ 137 µM)
O=[N+]([O-])c1cccc(-c2nc(-c3ccccn3)no2)c1	6.4 (≈ 23.9 µM)
CCO/C([O-])=N/c1c[n+](N2CCOCC2)no1	> 36.3
CCN1CCN(c2nc(Nc3cccc(F)c3)nc(N)c2[N+](=O)[O-])CC1	> 54.2
NC(=O)CNC(=O)c1cccc(Cl)c1	> 31.9
CN(Cc1c(F)cccc1Cl)C(=O)c1ccc2ccccc2n1	> 49.3
O=C(CNc1cc(S(=O)(=O)N2CCOCC2)ccc1N1CCOCC1)Nc1cccc(C(F)(F)F)c1	2.5 (≈ 4.73 µM)
Fc1ccccc1CN1CCN(c2ccc(Cl)cc2)CC1	1 (≈ 3.28 µM)
COC(=O)c1sc2nc3c(cc2c1N)CCCC3	2 (≈ 7.62 µM)
CCN1CCN(c2ncnc3sc4c(c23)CCC(C)C4)CC1 (centres undefined)	26.4 (≈ 83.4 µM)
O=C(N/C(=C\c1ccccc1)C(=O)N1CCOCC1)c1ccco1	> 49
CCn1c(SCC(=O)NC2CCCC2)nnc1-c1cccnc1	> 49.7
CCOC(=O)CSc1nc(C)cc(C)c1C(N)=O	35.6 (≈ 133 µM)
COc1ccc(CNC(=O)COc2ccc(OC)cc2)cc1	35.8 (≈ 119 µM)
COc1ccc2c(C(=O)CCl)c[nH]c2c1	5.3 (≈ 23.7 µM)
O=C(Nc1nccs1)c1cc(Cl)nc2ccccc12	5.2 (≈ 17.9 µM)
CN1CCN(NC(=O)c2ccc(Cl)s2)CC1	> 39
Cc1ccc(C(=O)N2CCCCC2)cc1S(=O)(=O)N1CCCC1	> 50.5
Cc1ccccc1OC(C)C(=O)NCCC1=CCCCC1 (centres undefined)	19.6 (≈ 68.2 µM)
COC(=O)c1cccc(NC(=O)Cc2ccsc2)c1	> 41.3
CCOC(=O)c1c(C)[nH]c(C(=O)N2CCN(CC)CC2)c1C	> 46.1

SMILES	solubility kinetic [µg/mL]
N/C(=N\OC(=O)c1cccc2ccccc12)c1ccncc1	31.3 (≈ 107 µM)
CCOC(=O)C(CC(=O)O)NCc1ccco1 (centres undefined)	34.3 (≈ 142 µM)
CCOc1ccc(N=C(C)C2=C(O)c3ccccc3C2=O)cc1	< 0.7
O=C(Cn1nc(Cl)nc1Cl)c1ccc([N+](=O)[O-])cc1	> 45.2
C=CCOn1c(=O)c(-c2ccc(C)cc2)[n+]([O-])c2ccccc21	5.7 (≈ 18.5 µM)
CN(Cc1ccccc1)C(=O)COC(=O)/C=C/c1ccc2c(c1)OCO2	22.3 (≈ 63.1 µM)
CCCC(=O)C1=C(N2CCCC2)CC(C)(C)C(C(=O)OC)C1=O (centres undefined)	44.9 (≈ 140 µM)
Cc1ccc(NC(=O)Cn2cc(C(=O)C3CC3)c3ccccc32)c(C)c1	< 0.4
COc1ccc(NC(=S)Nc2cccc(C(F)(F)F)c2)c(C)c1	8 (≈ 23.5 µM)
COC(=O)c1ccc(Nc2c([N+](=O)[O-])c(=O)oc3ccccc23)cc1	4.1 (≈ 12 µM)
COc1ccccc1CNC(=O)c1ccc(Cl)c(S(=O)(=O)N2CCCC2)c1	17.9 (≈ 43.8 µM)
Clc1ccc(OCC#CCN2CCOCC2)cc1.O=C(O)C(=O)O	50.3
O=c1[nH]c2cccc(F)c2n2cccc12	3.2 (≈ 15.8 µM)
OC1(c2ccc3c(c2)OCO3)CCN(Cc2ccc(F)cc2)CC1	> 49.4
Cc1ccc(C(=O)NCC(=O)NCc2ccc(Cl)cc2)s1	7.4 (≈ 22.9 µM)
O=C1C(=O)N(CCS(=O)(=O)c2ccccc2)c2ccccc21	> 47.3
COc1ccc(C(=S)N2CCN(c3cccc(Cl)c3)CC2)cc1	1.2 (≈ 3.46 µM)
COC(=O)c1cccc(NC(=O)CSCc2ccccc2)c1	35.6 (≈ 113 µM)
CN(Cc1ccccc1)S(=O)(=O)c1cc2c3c(c1)CCN3C(=O)CC2	3.6 (≈ 10.1 µM)
CCCn1c(=O)c(C(=O)NCc2ccco2)c(O)c2ccccc21	< 0.3
COC(=O)c1cccc(Nc2ccc([N+](=O)[O-])cn2)c1	0.3 (≈ 1.1 µM)
Cc1cccc(NC(=S)N2CCCCC2c2cccnc2)c1C (centres undefined)	> 48.8
O=C1CCCN1CC1CCN(Cc2nc(CC3CC3)no2)CC1	42.9 (≈ 135 µM)
CC(C(=O)N1CCOCC1)n1cc([N+](=O)[O-])cn1 (centres undefined)	> 38.1

SMILES	solubility kinetic [µg/mL]
Cc1ccc(N=Cc2c(O)n(C)c(=O)n(C)c2=O)cc1	6.1 (≈ 22.3 µM)
NC(=S)Nc1nc2ccccc2s1	25.8 (≈ 123 µM)
Nc1c(C(=O)OCC(=O)Nc2ccccc2Br)[nH]c(=O)[nH]c1=O	25.6 (≈ 66.8 µM)
Cc1ccc(NC(=O)CCOc2ccccc2C)cc1F	2.5 (≈ 8.7 µM)
Cc1ccc(S(=O)(=O)N(C)CC(=O)NNC(=O)CCNS(=O)(=O)c2cccc(C)c2)cc1	> 72.4
CCSc1nc2ccccc2c(=O)n1Cc1ccc(F)cc1	< 0.3
CCCCN(CCCC)CCCOC(=O)c1ccc(N)cc1	> 46
O=C1OC(c2ccc(F)cc2)=N/C1=C\c1ccc(Br)o1	9.6 (≈ 28.6 µM)
C=CCn1c(SCC(=O)Nc2ccc(C(=O)O)cc2)nc2scc(-c3ccccc3)c2c1=O	> 71.6
O=C(CCc1ccc(S(=O)(=O)N2CCOCC2)cc1)Nc1ccc(F)cc1[N+](=O)[O-]	14 (≈ 32 µM)
COc1ccc(C(=O)C2CCCN(C(=O)C3=CCCC3)C2)cc1OC (centres undefined)	> 51.5
COc1ccc(-c2csc(Nc3cccc(C)n3)n2)cc1	< 0.2
O=C(OCC(=O)N1CCCCC1)c1cccs1	> 38
Cc1ccnc(NC(=O)CCS(=O)(=O)c2ccccc2)c1	> 45.7
CC(=O)NN1C(=O)c2ccccc2NC1c1ccc([N+](=O)[O-])o1 (centres undefined)	> 47.4
Cn1c(=O)[nH]c(=O)c2c1[nH]c(=S)n2Cc1ccccc1	> 43.2
NC(=O)COC(=O)c1ccc(-c2ccccc2)cc1	19.1 (≈ 74.8 µM)
NC(=O)COc1cc2oc(=O)c3c(c2cc1Cl)CCCC3	7.1 (≈ 23.1 µM)
Cc1sc2nc(-c3cccnc3)[nH]c(=O)c2c1-c1ccccc1	2.1 (≈ 6.58 µM)
CC(=O)c1cccc(NC(=O)CC(C)n2ccnc2)c1 (centres undefined)	> 40.7
COc1ccccc1NC(=O)CN1CCCCCC1	24.3 (≈ 92.6 µM)
CN(CC1CCCN(CCc2ccc(F)cc2)C1)C(=O)CCC(F)(F)F (centres undefined)	48.5 (≈ 130 µM)
Cc1ccsc1/C=C(\C#N)C(=O)NCCCN1CCOCC1	45.7 (≈ 143 µM)
O=S(=O)(Cc1ccco1)Cc1nc(-c2ccc(Cl)cc2)cs1	0.9 (≈ 2.54 µM)

SMILES	solubility kinetic [µg/mL]
COc1ccccc1NC(=O)/C(C#N)=C/c1ccncc1	36 (≈ 129 µM)
N/C(=N\OC(=O)/C=C/c1ccccc1Cl)c1ccncc1	28.2 (≈ 93.5 µM)
O=C1C=C(N2CCOCC2)C2(CCCCC2)O1	> 35.6
CC1CCCC(NC(=O)CCn2c(=S)oc3ccccc32)C1C (centres undefined)	2 (≈ 6.02 µM)
CCOc1ccc(Nc2cc(C)nc3c(C)cccc23)cc1	24.5 (≈ 83.8 µM)
O=C(CCNC(=O)c1ccco1)Nc1ccc(C(F)(F)F)cc1	23.4 (≈ 71.7 µM)
COc1ccc(CC(=O)N2CCN(c3ccccc3)CC2)cc1OC	49.9 (≈ 147 µM)
Clc1ccccc1-c1nc(-c2ccc(Br)o2)no1	< 0.3
COCCNC(=S)N(CCc1c(C)[nH]c2ccccc12)Cc1ccco1	27.9 (≈ 75.1 µM)
O=C(Nc1nccs1)c1ccc(-c2ccc(F)c(Cl)c2)o1	0.5 (≈ 1.55 µM)
COc1ccc2c(CC(=O)OCc3nc4ccsc4c(=O)[nH]3)coc2c1	32.2 (≈ 86.9 µM)
Cc1ccc(CNc2ccc(N3CCOCC3)cc2)cc1	> 42.4
CSc1ccccc1C(=O)OCC(=O)Nc1ccc(N2CCOCC2)cc1	9.3 (≈ 24.1 µM)
CSCCNC(=O)c1ccc2nc(C3CCCCC3)oc2c1	13.2 (≈ 41.5 µM)
Cl.O=C1CCC(c2ccccc2)(C2CCN(Cc3ccccc3)CC2)C(=O)N1 (centres undefined)	51.4
CC(C)CN(C(=O)C1CCC1)c1c(N)n(Cc2ccccc2)c(=O)[nH]c1=O	36.6 (≈ 98.8 µM)
CC(C)(C)CC(=O)NCCc1csc(-c2ccccc2)n1	> 45.4
NCCc1nc2ccccc2s1	23.2 (≈ 130 µM)
CCCNC(=O)CN1CCC(c2nc3ccccc3[nH]2)CC1	34 (≈ 113 µM)
COc1cc(C)c(S(=O)(=O)N2CCOCC2)c(C)c1C	> 44.9
Clc1ccc(CN2CCC(c3ccccc3)CC2)cc1	4.3 (≈ 15 µM)
COc1ccccc1CNC(=O)CN(C)CC(=O)Nc1ccc(F)c(F)c1F	> 59.3
O=C(Cn1c(=O)cnc2ccccc21)Nc1cc(Cl)ccc1N1CCOCC1	51.6 (≈ 129 µM)
O=C(COC(=O)Cc1c[nH]c2ccccc12)Nc1cc(S(=O)(=O)N2CCOCC2)ccc1Cl	12.7 (≈ 25.8 µM)

SMILES	solubility kinetic [µg/mL]
Cn1cnnc1SCC(=O)Nc1ccccc1F	> 39.9
CS(=O)(=O)Nc1ccc(-c2cn3c(n2)SCC3)cc1	43.6 (≈ 148 µM)
COc1cc2nc(-c3ccccc3C)oc(=O)c2cc1OC	< 0.6
CN(C)/C=C(\C#N)C(=O)Nc1ccc(F)c(Cl)c1	2 (≈ 7.47 µM)
COc1ccc2c(C#N)c3ccccn3c2c1	0.9 (≈ 4.05 µM)
Cc1cc(NC(=O)c2cccs2)ncc1NC(=O)C(C)C	> 45.5
COc1ccccc1NC(=O)c1cc[n+]([O-])cc1	> 36.6
CCOc1ccccc1NS(=O)(=O)c1csc(C(N)=O)c1	> 49
Cc1cc(C(=O)OCC(=O)NC2CC2)ccc1[N+](=O)[O-]	15.5 (≈ 55.7 µM)
CC1CCCC(NC(=O)COC(=O)/C=C/c2ccc([N+](=O)[O-])cc2)C1C (centres undefined)	4.8 (≈ 13.3 µM)
Cc1ccc2c(CN3CCN(Cc4ccccc4)CC3)cc(=O)oc2c1	49.4 (≈ 142 µM)
O=C(N[C@@H](Cc1ccccc1)C(=O)NC1CC1)c1ccc(Cl)cc1	6.8 (≈ 19.8 µM)
Cc1cc(Nc2cccc(F)c2)nc(N2CCOCC2)n1	36.2 (≈ 126 µM)
Cc1nc2ccccc2c(=O)n1CCCN1CCOCC1	> 43.1
O=C(NC1CCCc2ccccc21)C1CCCC1 (centres undefined)	27.3 (≈ 112 µM)
NC12NC(=O)C3(O)C4C5CC(C6C5C3C61)C42 (centres undefined)	> 32.7
COc1ccccc1N1CCN(Cc2nc3ccccc3[nH]2)CC1	47.9 (≈ 149 µM)
Cc1cc(C)cc(C(=O)Nc2cc3c4c(c2)CC(=O)N4CCC3)c1	1.2 (≈ 3.75 µM)
O=C(C[n+]1ccccc1)Nc1ccc(Oc2ccccc2)cc1.[Cl-]	> 51.1
Cc1cccc(C(=O)NCC(=O)N2CCCC2)c1	> 36.9
CS(=O)(=O)N1CCC(C(=O)Nc2ccc(C(N)=O)cc2)CC1	34.7 (≈ 107 µM)
COc1ccc(C(CCNCc2ccc(OC)c(OC)c2)c2ccc(F)cc2)cc1 (centres undefined)	> 61.4
O=[N+]([O-])c1ccc(N2CCCCC2)nc1	29.2 (≈ 141 µM)
